In EP0432309B1, “Sugar derivatives, process for their preparation and their use” (Laevosan-Gesellschaft m.b.H., priority 1989, dated 1991):

Key:
[1] = system: humanen Ovarialkarzinom-Zellkultur (HOC-7); experiment: human tumour cloning assay (HTCA): clonal growth of single malignant cells in semisolid media, colonies counted after 21 days; format: cell-based; conditions: for antiproliferative/cytotoxische Wirkung: HOC-7, HTCA, result in words; for Kolonienüberleben: HOC-7, 21 days
From the text: Zur Prüfung auf ihre antiproliferativen/cytotoxischen Eigenschaften wurden die erfindungsgemäßen Verbindungen der Formel I und II mittels einer humanen Ovarialkarzinom-Zellkultur (HOC-7) getestet, wobei als Testsystem der sogenannte human tumour cloning assay (HTCA) herangezogen wurde, ein System, in dem das klonale Wachstum maligner Einzelzellen in semisoliden Medien selektiv erfaßt wird (vgl. S. Hamburger, Science 197, (1977), 461). Dabei zeigten die Verbindungen eine überraschend hohe antiproliferative/cytotoxische Wirkung.
Das in Beispiel 1 hergestellte 3-DGP sowie DGP-DA von Beispiel 2 wurden hinsichtlich ihrer antiproliferativen/cytotoxischen Eigenschaften mittels einer humanen Ovarialkarzinom-Zellkultur (HOC-7) getestet, wobei als Testsystem der sogenannte human tumour cloning assay (HTCA) herangezogen wurde, ein System, in dem das klonale Wachstum maligner Einzelzellen in semisoliden Medien selektiv erfaßt wird (vgl. S. Hamburger, Science 197, (1977), 461).
Je eine wäßrige Lösung von 3-DGP und DGP-DA wurde in folgender Verdünnungsreihe getestet.
wobei sowohl ein […] (in Form von HgCl₂) als auch ein Ansatz mit Lösungsmittel (Aqua bidest) mitgeführt wurde.
Die Kulturen wurden bei 37°C, 5 % CO₂, 100 % Luftfeuchtigkeit 21 Tage inkubiert, danach wurden die Kultursysteme aufgearbeitet, wobei die gewachsenen Kolonien (Klone) unter dem Mikroskop ausgezählt wurden.
Als Wirksamkeit der getesteten Lösung wurde ein Kolonienüberleben < 50 % der Kontrolle definiert.

[2] = system: Escherichia coli ATCC 8739; experiment: preservation test according to DAB 9, VIII, N1 (colony counts over time); format: cell-based; conditions: E. coli; for KBE nach 3 Tagen: 3 days; for KBE nach 10 Tagen: 10 days; for KBE nach 1 Tag: 1 day
From the text: (§1) Die erfindungsgemäßen Verbindungen weisen eine bakterizide Wirksamkeit auf, wie die nachstehend angegebenen Versuchsergebnisse zeigen: Präparat: Di-deoxy-glyceropentulose-Dianhydrid 0,3 %, 1 % und 3 % Die Untersuchung wurde mit folgenden Keimen durchgeführt: Escherichia coli ATCC 8739 Pseudomonas aeruginosa ATCC 9027 Staphylococcus aureus ATCC 6538 Candida albicans ATCC 10231 Aspergillus niger ATCC 16404 Tabelle 6
(§2) Analog Beispiel 9 wurde die bakterizide Wirksamkeit von DGP untersucht. Präparat: DGP-wässriger Sirup 0,3 %, 1 % und 3 %, Charge: 91621 Die Untersuchung wurde mit folgenden Keimen durchgeführt: Escherichia coli ATCC 8739 Pseudomonas aeruginosa ATCC 9027 Staphyloccus aureus ATCC 6538 Candida albicans ATCC 10231 Aspergillus niger ATCC 16404 Tabelle 7

[3] = system: Pseudomonas aeruginosa ATCC 9027; experiment: as above; format: cell-based; conditions: Pseud. aerug.; for KBE nach 1 Tag: 1 day; for KBE nach 3 Tagen: 3 days; for KBE nach 10 Tagen: 10 days
From the text: as §1, §2

[4] = system: Staphylococcus aureus ATCC 6538; experiment: as above; format: cell-based; conditions: Staph. aureus; for KBE nach 1 Tag: 1 day; for KBE nach 3 Tagen: 3 days; for KBE nach 10 Tagen: 10 days
From the text: as §1, §2

[5] = stability / hydrolysis in aqueous solution; format: physicochemical; conditions: result in words
Method: Aus den geeigneten Fraktionen kann hochgereinigte 3-DGP als farbloser, nicht kristallisierender Sirup erhalten werden. Da die Substanz unter wasserfreien oder wasserarmen Bedingungen zur Bildung von dimeren Anhydriden neigt, ist es zweckmäßig, sie als etwa 50 %ige wäßrige Lösung herzustellen und aufzubewahren. […] Erhöhung der Temperatur und Absenken des pH-Wertes beschleunigen diese Zersetzung. Für die Aufbewahrung ist es daher zweckmäßig, Temperaturen von ≦ 4°C und pH-Werte zwischen 5 und 6 einzuhalten. In solchen Lösungen liegt offenbar ein Gemisch der alpha- und beta-Furanosen und des offenkettigen Ketozuckers vor.
Die Glycoside bilden sich außerordentlich leicht aus den Lösungen von 3-DGP in den entsprechenden Alkoholen in Gegenwart sehr geringer Mengen an Säure oder Ionenaustauscher in der H⁺-Form als Katalysator bereits nach kurzer Behandlung bei Raumtemperatur. Ebenso leicht tritt in wäßriger Lösung Hydrolyse der Glycoside ein, so daß unter physiologischen Bedingungen eine Äquivalenz mit freier 3-DGP erwartet werden kann.
Das Dianhydrid der Formel II (R = H) bildet sich leicht bei Behandlung von mäßig sauren 3-DGP-Lösungen mit wasserentziehenden Mitteln, wie z.B. wasserfreiem Natriumsulfat oder Calciumsulfat, oder beim Eindampfen von wäßrigen oder organischen Lösungen von 3-DGP und Stehenlassen des wasserfreien Produktes.

[6] = result in words

Question: Which “antiproliferative/cytotoxische Wirkung” value [1] does the source give for `COC1(CO)C[C@H](O)CO1` (stereo partly drawn) [Methylglycosid, Methyl-3-Deoxy-D-Glyceropentulosid] here?
Answer: eindeutige antiproliferative/cytotoxische Wirkung

Question: For `CCCCOC1(COC(C)=O)C[C@H](OC(C)=O)CO1` (stereo partly drawn) [Diacyl-n-butyl-glycosid, n-Butyl-1,4-Diacetyl-3-Deoxy-D-Glyceropentulosid], which “antiproliferative/cytotoxische Wirkung” value [1] is on record?
Answer: eindeutige antiproliferative/cytotoxische Wirkung

Question: For `OC1COC2(COC3(CO2)CC(O)CO3)C1` [DGP-DA, Di-(3-deoxy-D-glyceropentulose)-dianhydrid], which Kolonienüberleben ([1]; Testkonzentration C (5.000 µg/ml)) is on record?
Answer: 30 % = Wirksamkeit

Question: What about the Kolonienüberleben ([1]; Testkonzentration D (2.500 µg/ml)) of the same compound?
Answer: 50 % = intermediäre Wirksamkeit

Question: What about the Kolonienüberleben ([1]; Testkonzentration E (500 µg/ml)) of the same compound?
Answer: 57 % = intermediäre Wirksamkeit

Question: What about the Kolonienüberleben ([1]; Testkonzentration F-J (250-2,5 µg/ml)) of the same compound?
Answer: 61 - 89 % = keine Wirksamkeit

Question: And the “KBE nach 3 Tagen” value ([2]; Konz 0,3 %)?
Answer: 0 KBE

Question: What about the “KBE nach 10 Tagen” value ([2]; Konz 0,3 %) of the same compound?
Answer: 0 KBE

Question: What about the “KBE nach 1 Tag” value ([2]; Konz 1 %) of the same compound?
Answer: 0 KBE

Question: What about the “KBE nach 3 Tagen” value ([2]; Konz 1 %) of the same compound?
Answer: 0 KBE

Question: And the “KBE nach 10 Tagen” value ([2]; Konz 1 %)?
Answer: 0 KBE

Question: And the “KBE nach 1 Tag” value ([2]; Konz 3 %)?
Answer: 0 KBE

Question: What about the “KBE nach 3 Tagen” value ([2]; Konz 3 %) of the same compound?
Answer: 0 KBE

Question: And the “KBE nach 10 Tagen” value ([2]; Konz 3 %)?
Answer: 0 KBE

Question: And the “KBE nach 1 Tag” value ([3]; Konz 3 %)?
Answer: 0 KBE

Question: And the “KBE nach 3 Tagen” value ([3]; Konz 3 %)?
Answer: 0 KBE

Question: And the “KBE nach 10 Tagen” value ([3]; Konz 3 %)?
Answer: 0 KBE

Question: And the “KBE nach 1 Tag” value ([4]; Konz 0,3 %)?
Answer: 0 KBE

Question: And the “KBE nach 3 Tagen” value ([4]; Konz 0,3 %)?
Answer: 0 KBE

Question: What about the “KBE nach 10 Tagen” value ([4]; Konz 0,3 %) of the same compound?
Answer: 0 KBE

Question: What about the “KBE nach 1 Tag” value ([4]; Konz 1 %) of the same compound?
Answer: 0 KBE

Question: What about the “KBE nach 3 Tagen” value ([4]; Konz 1 %) of the same compound?
Answer: 0 KBE

Question: What about the “KBE nach 10 Tagen” value ([4]; Konz 1 %) of the same compound?
Answer: 0 KBE

Question: What about the “KBE nach 1 Tag” value ([4]; Konz 3 %) of the same compound?
Answer: 0 KBE

Question: And the “KBE nach 3 Tagen” value ([4]; Konz 3 %)?
Answer: 0 KBE

Question: What about the “KBE nach 10 Tagen” value ([4]; Konz 3 %) of the same compound?
Answer: 0 KBE

Question: What about the “Stabilität der wäßrigen Lösung” value [5] of the same compound?
Answer: leicht zum Monomeren spaltbar

Question: With `O=C(CO)C[C@H](O)CO` [DGP, 3-Deoxy-D-Glyceropentulose] as the compound, how does the Kolonienüberleben ([1]; Testkonzentration C-F (5.000-250 µg/ml im Petrischälchen), % of control) read?
Answer: 0 % = Wirksamkeit

Question: What about the Kolonienüberleben ([1]; Testkonzentration F1 (200 µg/ml)) of the same compound?
Answer: 0,08 % = Wirksamkeit

Question: And the Kolonienüberleben ([1]; Testkonzentration F2 (152 µg/ml))?
Answer: 10 % = Wirksamkeit

Question: And the Kolonienüberleben ([1]; Testkonzentration F3 (100 µg/ml))?
Answer: 44 % = intermediäre Wirksamkeit

Question: What about the Kolonienüberleben ([1]; Testkonzentration G-J (50-2,5 µg/ml)) of the same compound?
Answer: 65 - 84 % = keine Wirksamkeit

Question: And the “KBE nach 10 Tagen” value ([2]; Konz 3 %)?
Answer: 0 KBE

Question: What about the “KBE nach 10 Tagen” value ([3]; Konz 0,3 %) of the same compound?
Answer: 0 KBE

Question: And the “KBE nach 3 Tagen” value ([3]; Konz 1 %)?
Answer: 0 KBE

Question: What about the “KBE nach 10 Tagen” value ([3]; Konz 1 %) of the same compound?
Answer: 0 KBE

Question: What about the “KBE nach 1 Tag” value ([3]; Konz 3 %) of the same compound?
Answer: 15 KBE

Question: What about the “KBE nach 3 Tagen” value ([3]; Konz 3 %) of the same compound?
Answer: 0 KBE

Question: What about the “KBE nach 10 Tagen” value ([3]; Konz 3 %) of the same compound?
Answer: 0 KBE

Question: And the “KBE nach 10 Tagen” value ([4]; Konz 0,3 %)?
Answer: 0 KBE

Question: What about the “KBE nach 10 Tagen” value ([4]; Konz 1 %) of the same compound?
Answer: 0 KBE

Question: What about the “KBE nach 3 Tagen” value ([4]; Konz 3 %) of the same compound?
Answer: 0 KBE

Question: What about the “KBE nach 10 Tagen” value ([4]; Konz 3 %) of the same compound?
Answer: 0 KBE

Question: And the “Stabilität der wäßrigen Lösung” value [5]?
Answer: relativ instabil

Question: With `[Cl][Hg][Cl]` [Negativkontrolle, HgCl₂, reference compound] as the compound, how does the Kolonienüberleben ([1]; Negativkontrolle VI (HgCl₂), concentration not given) read?
Answer: 0%

Question: With `CCCCOC1(CO)C[C@H](O)CO1` (stereo partly drawn) [n-Butylglycosid, n-Butyl-3-Deoxy-D-Glyceropentulosid] as the compound, how does the “antiproliferative/cytotoxische Wirkung” value [1] read?
Answer: eindeutige antiproliferative/cytotoxische Wirkung

Question: What about the Löslichkeit [6] of the same compound?
Answer: gut löslich in Wasser, Alkoholen und niederen Ketonen
